According to patent publication US9067914B1, “Tropomyosin-related kinase (TRK) inhibitors” (Genzyme Corporation, priority 2013, dated 2015):
pIC50: −log10 of the molar value.

Key:
[1] = biological target: TrkA (Homo sapiens (Human), UniProt P04629); test: TrkA activity, off-chip mobility shift assay (LabChip 3000); type: biochemical; conditions: 55 μM ATP (ATP Km); n/d = none detected
Source text: (§1) Reagents and consumables were purchased from Sigma Aldrich, Carna Biosciences, or Caliper Life Sciences. All assay reaction conditions for IC50 determinations were within the linear range with respect to time and enzyme concentration. […] The LabChip 3000 separates and measures the fluorescent signal of fluorescein labeled peptide substrate and fluorescein labeled peptide product present in each well. Results are expressed as percent conversion by measuring peak height for both the substrate and product and dividing the product peak height by the sum of peak heights for both substrate and product.

[2] = biological target: TrkB (Homo sapiens (Human), UniProt Q16620); test: TrkB activity, off-chip mobility shift assay (LabChip 3000); type: biochemical; conditions: 70 μM ATP (ATP Km); n/d = none detected
Sequence of TrkB (Q16620 32-822): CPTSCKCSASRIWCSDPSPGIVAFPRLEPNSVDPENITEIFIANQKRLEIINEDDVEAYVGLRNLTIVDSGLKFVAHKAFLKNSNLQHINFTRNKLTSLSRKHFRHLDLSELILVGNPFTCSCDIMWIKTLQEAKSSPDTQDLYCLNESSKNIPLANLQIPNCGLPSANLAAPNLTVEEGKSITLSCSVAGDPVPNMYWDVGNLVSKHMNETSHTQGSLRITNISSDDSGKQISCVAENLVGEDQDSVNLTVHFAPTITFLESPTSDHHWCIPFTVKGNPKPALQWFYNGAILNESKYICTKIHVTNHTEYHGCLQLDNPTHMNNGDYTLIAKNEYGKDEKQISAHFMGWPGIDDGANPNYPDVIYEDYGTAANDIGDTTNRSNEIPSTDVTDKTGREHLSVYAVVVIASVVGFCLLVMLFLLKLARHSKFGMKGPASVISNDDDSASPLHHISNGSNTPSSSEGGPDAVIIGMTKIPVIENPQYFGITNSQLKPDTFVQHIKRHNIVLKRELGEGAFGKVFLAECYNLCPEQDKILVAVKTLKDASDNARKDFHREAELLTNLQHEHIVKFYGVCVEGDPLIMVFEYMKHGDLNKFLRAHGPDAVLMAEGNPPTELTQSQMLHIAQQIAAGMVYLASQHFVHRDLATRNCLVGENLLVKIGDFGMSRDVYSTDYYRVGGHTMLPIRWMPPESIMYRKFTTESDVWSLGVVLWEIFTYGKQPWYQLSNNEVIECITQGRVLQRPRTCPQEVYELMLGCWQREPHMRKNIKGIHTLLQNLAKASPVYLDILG
Source text: as §1

Sequence of TrkA (P04629 33-796): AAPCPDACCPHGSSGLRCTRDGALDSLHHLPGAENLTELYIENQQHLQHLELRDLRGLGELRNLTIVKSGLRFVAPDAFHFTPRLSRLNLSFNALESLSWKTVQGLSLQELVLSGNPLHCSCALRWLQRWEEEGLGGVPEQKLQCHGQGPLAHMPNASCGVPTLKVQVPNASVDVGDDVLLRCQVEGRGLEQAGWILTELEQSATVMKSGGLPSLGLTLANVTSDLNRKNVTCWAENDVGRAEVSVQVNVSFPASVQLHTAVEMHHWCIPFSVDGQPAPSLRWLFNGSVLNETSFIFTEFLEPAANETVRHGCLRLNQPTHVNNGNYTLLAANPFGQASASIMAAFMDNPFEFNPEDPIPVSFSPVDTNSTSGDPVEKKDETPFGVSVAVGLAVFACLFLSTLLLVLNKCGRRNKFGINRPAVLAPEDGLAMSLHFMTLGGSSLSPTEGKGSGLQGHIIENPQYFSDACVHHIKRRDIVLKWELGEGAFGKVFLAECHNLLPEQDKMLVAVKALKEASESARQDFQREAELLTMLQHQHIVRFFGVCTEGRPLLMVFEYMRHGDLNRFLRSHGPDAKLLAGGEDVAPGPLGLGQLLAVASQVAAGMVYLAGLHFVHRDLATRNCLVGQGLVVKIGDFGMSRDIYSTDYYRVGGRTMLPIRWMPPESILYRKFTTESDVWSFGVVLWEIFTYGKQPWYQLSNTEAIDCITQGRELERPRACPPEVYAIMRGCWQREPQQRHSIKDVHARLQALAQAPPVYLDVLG

pIC50 [1]	pIC50 [2]	Structure (SMILES)
8.10	7.89	COc1ccc(COc2ccc(Cn3cnc4cc(N5CCC[C@H]5C(=O)O)cnc43)cc2OC)cn1 [Ex. 3-18-7, (S)-1-(3-(3-Methoxy-4-((6-methoxypyridin-3-yl)methoxy)benzyl)-3H-imidazo[4,5-b]pyridin-6-yl)pyrrolidine-2-carboxylic acid]
9.00	9.05	COc1ccc(COc2ccc(Cn3cnc4cc(-c5cnn(C6CCNCC6)c5)cnc43)cc2OC)cn1 [Ex. 3-19, 3-(3-Methoxy-4-((6-methoxypyridin-3-yl)methoxy)benzyl)-6-(1-(piperidin-4-yl)-1H-pyrazol-4-yl)-3H-imidazo[4,5-b]pyridine]
9.05	9.22	COc1cc(Cn2cnc3cc(-c4cnn(C5CCNCC5)c4)cnc32)ccc1OCc1ccc(C)nc1 [Ex. 3-20, 3-(3-Methoxy-4-((6-methylpyridin-3-yl)methoxy)benzyl)-6-(1-(piperidin-4-yl)-1H-pyrazol-4-yl)-3H-imidazo[4,5-b]pyridine]
7.59	7.62	COc1ccc(COc2ccc(Cn3cnc4cc(-c5noc(C6CCNCC6)n5)cnc43)cc2OC)cn1 [Ex. 3-21, 3-(3-(3-Methoxy-4-((6-methoxypyridin-3-yl)methoxy)benzyl)-3H-imidazo[4,5-b]pyridin-6-yl)-5-(piperidin-4-yl)-1,2,4-oxadiazole]
6.51	6.50	COc1ccc(COc2ccc(Cn3cnc4cc(-c5noc(C6CCNCC6)n5)ccc43)cc2OC)cn1 [Ex. 3-22, 3-(1-(3-Methoxy-4-((6-methoxypyridin-3-yl)methoxy)benzyl)-1H-benzo[d]imidazol-5-yl)-5-(piperidin-4-yl)-1,2,4-oxadiazole]
7.29	7.24	COc1ccc(COc2ccc(Cn3cnc4cc(-c5nnc(C6CCNCC6)o5)cnc43)cc2OC)cn1 [Ex. 3-23, 2-(3-(3-Methoxy-4-((6-methoxypyridin-3-yl)methoxy)benzyl)-3H-imidazo[4,5-b]pyridin-6-yl)-5-(piperidin-4-yl)-1,3,4-oxadiazole]
7.06	7.37	COc1ccc(COc2ccc(Cn3cnc4cc(-n5cc(C(C)(C)N)nn5)cnc43)cc2OC)cn1 [Ex. 3-24, 2-(1-(3-(3-Methoxy-4-((6-methoxypyridin-3-yl)methoxy)benzyl)-3H-imidazo[4,5-b]pyridin-6-yl)-1H-1,2,3-triazol-4-yl)propan-2-amine]
7.49	7.74	COc1ccc(COc2ccc(Cn3cnc4cc(-n5cc(C6CCCNC6)nn5)cnc43)cc2OC)cn1 (centres unmarked) [Ex. 3-25, 3-(3-Methoxy-4-((6-methoxypyridin-3-yl)methoxy)benzyl)-6-(4-(piperidin-3-yl)-1H-1,2,3-triazol-1-yl)-3H-imidazo[4,5-b]pyridine]
6.23	6.50	COc1ccc(COc2ccc(Cn3c(N)nc4cc(N5CCN(C)CC5)ccc43)cc2OC)cn1 [Ex. 3-26, 1-(3-methoxy-4-((6-methoxypyridin-3-yl)methoxy)benzyl)-5-(4-methylpiperazin-1-yl)-1H-benzo[d]imidazol-2-amine]
6.07	6.52	COc1ccc(COc2cc(F)c(Cn3cnc4cc(N5CCN(C)CC5)ccc43)cc2OC)cn1 [Ex. 3-27, 1-(2-fluoro-5-methoxy-4-((6-methoxypyridin-3-yl)methoxy)benzyl)-5-(4-methylpiperazin-1-yl)-1H-benzo[d]imidazole]
5.22	5.37	COc1ccc(COc2ccc(Cn3cnc4cc(N5CCN(C)CC5=O)ccc43)cc2OC)cn1 [Ex. 3-29, 1-(1-(3-Methoxy-4-((6-methoxypyridin-3-yl)methoxy)benzyl)-1H-benzo[d]imidazol-5-yl)-4-methylpiperazin-2-one]
6.70	6.93	COc1ccc(COc2ccc(Cn3cnc4cc(C5=CC6(C)CCCN5C6)cnc43)cc2OC)cn1 (centres unmarked) [Ex. 3-30, 3-(3-Methoxy-4-((6-methoxypyridin-3-yl)methoxy)benzyl)-6-(5-methyl-1-azabicyclo[3.2.1]oct-6-en-7-yl)-3H-imidazo[4,5-b]pyridine]
5.83	6.05	COc1ccc(COc2ccc(Cn3cnc4cc(C5=CC6(C)CCCN5C6)ccc43)cc2OC)cn1 (centres unmarked) [Ex. 3-31, 1-(3-methoxy-4-((6-methoxypyridin-3-yl)methoxy)benzyl)-5-(5-methyl-1-azabicyclo[3.2.1]oct-6-en-7-yl)-1H-benzo[d]imidazole]
6.44	6.82	COc1ccc(COc2ccc(Cn3cnc4cc(C5=CC6(O)CCCN5C6)cnc43)cc2OC)cn1 (centres unmarked) [Ex. 3-32, 7-(3-(3-methoxy-4-((6-methoxypyridin-3-yl)methoxy)benzyl)-3H-imidazo[4,5-b]pyridin-6-yl)-1-azabicyclo[3.2.1]oct-6-en-5-ol]
5.94	6.43	COc1ccc(COc2ccc(Cn3cnc4cc(C5=CC6(O)CCCN5C6)ccc43)cc2OC)cn1 (centres unmarked) [Ex. 3-33, 7-(1-(3-Methoxy-4-((6-methoxypyridin-3-yl)methoxy)benzyl)-1H-benzo[d]imidazol-5-yl)-1-azabicyclo[3.2.1]oct-6-en-5-ol]
9.22	9.52	COc1ccc(COc2ccc(Cn3c(N)nc4cc(-c5cnn(C)c5)cnc43)cc2OC)cn1 [Ex. 3-35-1, 3-(3-methoxy-4-((6-methoxypyridin-3-yl)methoxy)benzyl)-6-(1-methyl-1H-pyrazol-4-yl)-3H-imidazo[4,5-b]pyridin-2-amine]
9.70	9.70	COc1cc(Cn2c(N)nc3cc(-c4cnn(C)c4)cnc32)ccc1OCc1ccc(C(F)(F)F)nc1 [Ex. 3-35-2, 3-(3-methoxy-4-((6-(trifluoromethyl)pyridin-3-yl)methoxy)benzyl)-6-(1-methyl-1H-pyrazol-4-yl)-3H-imidazo[4,5-b]pyridin-2-amine]
9.70	9.52	COc1cc(Cn2c(N)nc3cc(-c4cnn(C)c4)cnc32)ccc1OCc1ccc(C(F)(F)F)cc1 [Ex. 3-35-3, 3-(3-methoxy-4-((4-(trifluoromethyl)benzyl)oxy)benzyl)-6-(1-methyl-1H-pyrazol-4-yl)-3H-imidazo[4,5-b]pyridin-2-amine]
9.70	9.70	COc1cc(Cn2c(N)nc3cc(-c4cnn(C)c4)cnc32)ccc1OCc1ccc(C2CC2)nc1 [Ex. 3-35-4, 3-(4-((6-cyclopropylpyridin-3-yl)methoxy)-3-methoxybenzyl)-6-(1-methyl-1H-pyrazol-4-yl)-3H-imidazo[4,5-b]pyridin-2-amine]
9.30	9.70	COc1cc(Cn2c(N)nc3cc(-c4cnn(C)c4)cnc32)ccc1OCc1csc(C)n1 [Ex. 3-35-5, 3-(3-methoxy-4-((2-methylthiazol-4-yl)methoxy)benzyl)-6-(1-methyl-1H-pyrazol-4-yl)-3H-imidazo[4,5-b]pyridin-2-amine]
8.22	8.40	COc1ccc(COc2ccc(Cn3c(N)nc4cc(-c5ccccc5)cnc43)cc2OC)cn1 [Ex. 3-36, 3-(3-methoxy-4-((6-methoxypyridin-3-yl)methoxy)benzyl)-6-phenyl-3H-imidazo[4,5-b]pyridin-2-amine]
8.05	8.40	COc1ccc(COc2ccc(Cn3c(N)nc4cc(-c5ccc(F)cc5)cnc43)cc2OC)cn1 [Ex. 3-37-1, 6-(4-fluorophenyl)-3-(3-methoxy-4-((6-methoxypyridin-3-yl)methoxy)benzyl)-3H-imidazo[4,5-b]pyridin-2-amine]
